From US10597352B1, “Stable alkyl benzidine composition and methods of making and using same” (OneStep Technologies Inc., priority 2019, dated 2020)

Assay: Stability evaluation of alkyl benzidine solutions on storage at a stated temperature (method not described)
Assay type: physicochemical
Procedure: In one example, a solution of TMB prepared in polyethylene glycol in accordance with Example 1.0 was evaluated for stability. It was determined that the solution was stable at room temperature (i.e. 22° C.) for a period of at least two years. It was further determined that the solution was stable at 37° C. for a period of at least two months.

## Cc1cc(-c2cc(C)c(NCCCS(=O)(=O)O)c(C)c2)cc(C)c1N [N-(3-sulfopropyl)-3,3′,5,5′-tetramethylbenzidine]
  stability of compositions produced with the tetraalkyl benzidine compound (in words): stable compositions
